# Data: ChEMBL document CHEMBL1201862, “PubChem BioAssay data set” (2004)
# Active and inactive are the calls of the source.
# Tests used:
# [1] = target: T1, Polyadenylate-binding protein 1 (Homo sapiens, UniProt P11940); test: PABP1 MLLE–PAM2 interaction inhibitors, dose response, miRNA deadenylation inhibitor project, biochemical, fluorescence polarization, Cy5-PAM2 peptide, secondary (AID 602260); type: functional; details: read-out: IC50_Mean
# [2] = target: T2, Cytochrome P450 1A2 (Homo sapiens, UniProt P05177);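 further: PubChem cytochrome P450 panel assay, CYP1A2 panel member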
# T2 sequence (P05177 whole entry): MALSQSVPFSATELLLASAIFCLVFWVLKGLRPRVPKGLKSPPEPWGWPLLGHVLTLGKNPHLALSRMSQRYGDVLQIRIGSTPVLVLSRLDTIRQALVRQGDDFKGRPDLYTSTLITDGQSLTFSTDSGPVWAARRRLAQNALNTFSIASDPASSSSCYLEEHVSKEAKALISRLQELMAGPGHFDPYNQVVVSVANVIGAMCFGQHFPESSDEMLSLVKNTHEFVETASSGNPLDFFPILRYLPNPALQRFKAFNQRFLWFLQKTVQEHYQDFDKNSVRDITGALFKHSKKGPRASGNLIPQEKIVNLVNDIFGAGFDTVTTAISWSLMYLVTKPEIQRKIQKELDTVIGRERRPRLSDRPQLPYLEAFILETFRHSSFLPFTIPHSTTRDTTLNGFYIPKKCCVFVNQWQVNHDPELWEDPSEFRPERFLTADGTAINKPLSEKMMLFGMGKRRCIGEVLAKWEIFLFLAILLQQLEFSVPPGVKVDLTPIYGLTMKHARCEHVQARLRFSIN
# [3] = target: T1, Polyadenylate-binding protein 1; test: PABP1 MLLE–PAM2 binding inhibitor potency, dose response, biochemical, fluorescence polarization, FITC-PAM2 peptide (AID 602259); type: functional; details: read-out: IC50_Mean
# [4] = target: T3, Corticotropin-releasing factor receptor 2/Corticotropin-releasing factor-binding protein (Homo sapiens, UniProt P24387+Q13324); test: activators of CRF receptor 2 with binding protein – uHTS hits, confirmation (AID 602473); type: functional; details: read-out: EC50_Mean
# T3 sequence (Q13324 whole entry): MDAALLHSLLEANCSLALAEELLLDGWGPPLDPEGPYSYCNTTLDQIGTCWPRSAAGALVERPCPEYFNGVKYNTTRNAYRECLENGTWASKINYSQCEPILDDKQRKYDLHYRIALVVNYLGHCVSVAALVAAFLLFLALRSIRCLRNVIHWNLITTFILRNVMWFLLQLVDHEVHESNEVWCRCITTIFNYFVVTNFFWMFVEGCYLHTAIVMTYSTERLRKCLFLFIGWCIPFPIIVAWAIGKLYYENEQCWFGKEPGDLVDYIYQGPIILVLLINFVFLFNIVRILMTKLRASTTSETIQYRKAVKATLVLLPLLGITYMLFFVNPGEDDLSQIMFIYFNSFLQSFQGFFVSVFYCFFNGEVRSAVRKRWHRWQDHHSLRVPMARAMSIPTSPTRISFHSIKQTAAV
# T3 sequence (P24387 whole entry): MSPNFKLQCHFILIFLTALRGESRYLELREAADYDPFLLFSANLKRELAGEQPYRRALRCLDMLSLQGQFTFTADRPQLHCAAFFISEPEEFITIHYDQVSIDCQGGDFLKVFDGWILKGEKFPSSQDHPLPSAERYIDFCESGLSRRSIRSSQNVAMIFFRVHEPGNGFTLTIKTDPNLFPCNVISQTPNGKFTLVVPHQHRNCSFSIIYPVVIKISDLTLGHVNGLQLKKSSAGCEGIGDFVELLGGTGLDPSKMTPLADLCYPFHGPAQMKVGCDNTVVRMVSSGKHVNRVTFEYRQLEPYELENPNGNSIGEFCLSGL
# [5] = target: T4, Fatty acid synthase (Homo sapiens, UniProt P49327); test: FAS thioesterase domain inhibitors, dose response, biochemical, endpoint fluorescence intensity, uHTS hits (AID 624327); type: functional;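 further: fluorescence from hydrolysis of an O-methyl fluorescein acyl ester substrate by the enzyme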
# T4 sequence (P49327 whole entry, the tested form may be a part): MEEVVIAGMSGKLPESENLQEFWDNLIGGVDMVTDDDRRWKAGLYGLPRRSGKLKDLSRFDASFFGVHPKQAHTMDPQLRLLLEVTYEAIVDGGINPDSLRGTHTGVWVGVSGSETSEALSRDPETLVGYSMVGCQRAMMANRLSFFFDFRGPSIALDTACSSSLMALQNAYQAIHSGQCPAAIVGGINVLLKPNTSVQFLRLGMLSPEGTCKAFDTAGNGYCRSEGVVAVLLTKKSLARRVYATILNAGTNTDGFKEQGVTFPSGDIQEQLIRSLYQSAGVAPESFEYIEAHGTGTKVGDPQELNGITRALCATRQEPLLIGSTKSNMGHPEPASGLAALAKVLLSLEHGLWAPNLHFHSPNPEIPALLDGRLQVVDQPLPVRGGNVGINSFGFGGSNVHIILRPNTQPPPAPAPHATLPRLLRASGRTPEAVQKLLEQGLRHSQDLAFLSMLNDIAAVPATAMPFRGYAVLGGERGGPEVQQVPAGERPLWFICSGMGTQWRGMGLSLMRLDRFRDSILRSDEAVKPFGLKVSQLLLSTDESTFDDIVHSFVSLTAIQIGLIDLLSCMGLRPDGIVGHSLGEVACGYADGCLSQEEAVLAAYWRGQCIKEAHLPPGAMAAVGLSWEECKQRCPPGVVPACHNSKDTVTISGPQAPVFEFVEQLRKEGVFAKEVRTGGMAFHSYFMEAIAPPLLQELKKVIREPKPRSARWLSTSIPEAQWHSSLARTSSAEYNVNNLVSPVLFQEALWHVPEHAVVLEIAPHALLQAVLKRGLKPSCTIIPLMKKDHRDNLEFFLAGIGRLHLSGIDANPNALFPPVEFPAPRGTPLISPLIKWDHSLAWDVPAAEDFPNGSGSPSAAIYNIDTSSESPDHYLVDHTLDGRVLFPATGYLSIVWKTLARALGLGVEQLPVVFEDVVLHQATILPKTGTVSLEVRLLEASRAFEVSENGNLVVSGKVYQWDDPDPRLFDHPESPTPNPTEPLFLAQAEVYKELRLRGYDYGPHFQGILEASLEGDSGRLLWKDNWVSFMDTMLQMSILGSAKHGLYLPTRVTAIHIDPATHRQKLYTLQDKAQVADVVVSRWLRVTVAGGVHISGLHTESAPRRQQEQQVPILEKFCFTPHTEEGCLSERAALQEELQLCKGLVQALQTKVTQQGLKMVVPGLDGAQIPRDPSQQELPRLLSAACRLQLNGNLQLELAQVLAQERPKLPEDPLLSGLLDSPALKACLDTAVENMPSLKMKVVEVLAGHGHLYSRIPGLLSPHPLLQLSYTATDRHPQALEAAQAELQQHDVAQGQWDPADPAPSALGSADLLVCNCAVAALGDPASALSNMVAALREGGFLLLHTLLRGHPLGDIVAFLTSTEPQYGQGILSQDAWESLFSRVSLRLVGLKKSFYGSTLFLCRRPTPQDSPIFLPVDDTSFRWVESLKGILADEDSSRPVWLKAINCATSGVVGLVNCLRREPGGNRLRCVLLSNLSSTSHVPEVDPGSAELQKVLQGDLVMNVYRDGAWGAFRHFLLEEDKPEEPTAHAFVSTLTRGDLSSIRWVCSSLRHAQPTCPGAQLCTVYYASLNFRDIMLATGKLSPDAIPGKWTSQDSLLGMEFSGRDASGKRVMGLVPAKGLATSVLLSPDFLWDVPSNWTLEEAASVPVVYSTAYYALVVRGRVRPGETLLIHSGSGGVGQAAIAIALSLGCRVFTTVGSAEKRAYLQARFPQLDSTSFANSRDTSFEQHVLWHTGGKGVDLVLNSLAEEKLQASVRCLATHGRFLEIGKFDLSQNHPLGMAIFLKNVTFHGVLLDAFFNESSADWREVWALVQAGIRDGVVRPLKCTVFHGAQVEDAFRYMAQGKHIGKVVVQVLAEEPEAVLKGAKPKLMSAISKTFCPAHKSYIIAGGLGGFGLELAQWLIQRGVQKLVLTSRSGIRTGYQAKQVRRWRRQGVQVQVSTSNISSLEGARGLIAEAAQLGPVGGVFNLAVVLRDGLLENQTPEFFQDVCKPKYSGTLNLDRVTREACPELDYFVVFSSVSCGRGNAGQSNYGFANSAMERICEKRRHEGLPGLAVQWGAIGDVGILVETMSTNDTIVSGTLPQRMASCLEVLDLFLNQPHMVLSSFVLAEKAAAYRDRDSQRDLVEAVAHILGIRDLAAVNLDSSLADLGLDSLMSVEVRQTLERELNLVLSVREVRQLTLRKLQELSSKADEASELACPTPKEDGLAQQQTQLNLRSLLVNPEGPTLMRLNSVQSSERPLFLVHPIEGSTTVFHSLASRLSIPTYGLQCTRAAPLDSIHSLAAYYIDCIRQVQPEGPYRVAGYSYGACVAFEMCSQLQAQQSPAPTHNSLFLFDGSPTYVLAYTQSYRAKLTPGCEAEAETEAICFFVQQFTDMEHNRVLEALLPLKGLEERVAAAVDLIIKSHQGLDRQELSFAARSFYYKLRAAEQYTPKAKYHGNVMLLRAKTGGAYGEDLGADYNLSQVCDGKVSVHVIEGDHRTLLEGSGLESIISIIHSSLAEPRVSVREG
# [6] = target: T4, Fatty acid synthase; test: FAS thioesterase domain inhibitors, dose response, biochemical, kinetic fluorescence intensity (AID 624326); type: functional;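 further: rate of fluorescence rise from hydrolysis of a fluorogenic O-methyl fluorescein ester substrate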
# [7] = target: T5, Replicative DNA helicase DnaB (Mycobacterium tuberculosis, UniProt P9WMR3); test: DnaB intein splicing inhibitors, dose response, biochemical, cell-free fluorescence (AID 449749); type: functional
# T5 sequence (P9WMR3 whole entry): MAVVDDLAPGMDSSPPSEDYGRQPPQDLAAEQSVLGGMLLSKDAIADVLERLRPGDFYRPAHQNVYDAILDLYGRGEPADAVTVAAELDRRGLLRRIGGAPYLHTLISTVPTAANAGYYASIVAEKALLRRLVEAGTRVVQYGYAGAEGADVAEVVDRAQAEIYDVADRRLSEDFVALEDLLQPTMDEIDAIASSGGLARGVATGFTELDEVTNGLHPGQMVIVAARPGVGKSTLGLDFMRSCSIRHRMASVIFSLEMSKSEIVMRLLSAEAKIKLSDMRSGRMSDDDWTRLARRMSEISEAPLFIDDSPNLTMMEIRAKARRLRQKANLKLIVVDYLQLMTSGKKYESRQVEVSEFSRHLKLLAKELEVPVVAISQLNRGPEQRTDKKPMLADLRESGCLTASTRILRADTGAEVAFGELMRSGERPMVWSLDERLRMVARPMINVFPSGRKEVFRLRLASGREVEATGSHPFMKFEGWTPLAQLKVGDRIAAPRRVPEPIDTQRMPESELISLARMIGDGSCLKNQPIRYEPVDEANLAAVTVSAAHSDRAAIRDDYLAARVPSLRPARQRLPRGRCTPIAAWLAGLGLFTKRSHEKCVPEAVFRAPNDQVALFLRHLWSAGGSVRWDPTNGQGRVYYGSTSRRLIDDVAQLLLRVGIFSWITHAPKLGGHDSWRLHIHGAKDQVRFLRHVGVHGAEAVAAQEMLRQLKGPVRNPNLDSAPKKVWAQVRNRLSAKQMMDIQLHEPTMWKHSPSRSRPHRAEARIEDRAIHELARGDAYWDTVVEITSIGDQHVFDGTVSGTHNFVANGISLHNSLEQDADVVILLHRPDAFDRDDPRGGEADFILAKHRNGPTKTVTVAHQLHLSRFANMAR
# [8] = target: FAD-linked sulfhydryl oxidase ALR (Homo sapiens, UniProt P55789); test: inhibitors of human ALR sulfhydryl oxidase, dose response, biochemical, H2O2 detection, luminescence, cherry-pick (AID 493248)
# Chain of FAD-linked sulfhydryl oxidase ALR (P55789 whole entry): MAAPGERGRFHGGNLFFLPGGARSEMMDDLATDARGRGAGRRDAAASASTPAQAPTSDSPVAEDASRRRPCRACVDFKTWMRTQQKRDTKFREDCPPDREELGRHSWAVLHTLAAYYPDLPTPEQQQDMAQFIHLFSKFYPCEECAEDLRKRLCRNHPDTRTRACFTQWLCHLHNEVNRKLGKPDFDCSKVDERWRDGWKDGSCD
# [9] = target: T6, Protein RecA (Mycobacterium tuberculosis, UniProt P9WHJ3); test: Fluorescence Cell-Free Homogeneous Dose Retest to Identify Inhibitors of RecA-Intein Splicing Activity. [Related pubchem assays (depositor defined):AID2097, AID2223, AID489010, AID492950]; type: functional
# T6 sequence (P9WHJ3 whole entry): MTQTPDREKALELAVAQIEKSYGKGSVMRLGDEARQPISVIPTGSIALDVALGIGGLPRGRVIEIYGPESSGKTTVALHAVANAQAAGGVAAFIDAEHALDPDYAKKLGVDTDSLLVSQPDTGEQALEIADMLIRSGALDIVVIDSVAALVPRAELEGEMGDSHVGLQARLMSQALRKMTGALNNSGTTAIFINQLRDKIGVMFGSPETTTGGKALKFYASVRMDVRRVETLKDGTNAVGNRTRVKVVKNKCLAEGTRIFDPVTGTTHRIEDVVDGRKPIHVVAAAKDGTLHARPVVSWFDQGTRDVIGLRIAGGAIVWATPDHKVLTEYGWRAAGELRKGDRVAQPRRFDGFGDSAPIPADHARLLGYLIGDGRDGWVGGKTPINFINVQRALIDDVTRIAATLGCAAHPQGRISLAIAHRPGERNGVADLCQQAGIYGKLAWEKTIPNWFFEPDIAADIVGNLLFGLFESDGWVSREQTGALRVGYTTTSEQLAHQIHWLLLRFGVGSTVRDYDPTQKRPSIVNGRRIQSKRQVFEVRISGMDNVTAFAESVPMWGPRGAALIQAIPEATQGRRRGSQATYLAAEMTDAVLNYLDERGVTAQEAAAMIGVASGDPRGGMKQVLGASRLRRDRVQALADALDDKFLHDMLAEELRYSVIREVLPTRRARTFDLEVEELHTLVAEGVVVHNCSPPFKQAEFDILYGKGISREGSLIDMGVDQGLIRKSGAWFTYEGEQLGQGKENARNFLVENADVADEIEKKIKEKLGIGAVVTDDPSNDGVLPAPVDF
# [10] = Luminescence Cell-Based Dose Retest to Confirm Inhibitors of Cancer Stem Cells. [Related pubchem assays (depositor defined):AID2717, AID2721]; type: functional; details: Homo sapiens
# [11] = C. albicans growth with fluconazole, confirmation, fluorescence, retest (AID 2467); type: functional, cell-based
# [12] = NIH-3T3 fibroblast cytotoxicity, dose response, cytotoxicity control, cell-based, fluorescence, Alamar Blue, secondary assay (AID 2327); type: functional;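 further: NIH-3T3 mouse fibroblasts cultured with fluconazole at 8 µg/mL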
# [13] = system: INS1; test: beta cell apoptosis inhibitors, cytokine rescue, dose response, luminescence, retest (AID 449756); type: functional, cell-based; details: Rattus norvegicus;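 further: cell death triggered by IL-1 beta plus TNF-alpha plus IFN-gamma mixture; protective hits raise ATP signal compared with cytokine alone wells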
# [14] = cells; type: functional, cell-based
# [15] = inhibitors of intracellular T. cruzi replication, confirmation, NIH3T3 host cells, beta-gal luminescence (AID 2044); type: functional, cell-based;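 further: intracellular parasites grown in NIH/3T3 mouse fibroblasts as host cells; luminescent beta-galactosidase reporter signal from transgenic T. cruzi replicating inside host cells; inhibitors lower the luminescence signal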
# [16] = cells; type: functional, cell-based; remark: listed apart in the source
# [17] = cytotoxicity toward NIH3T3 fibroblasts, dose response, counter-screen, cell-based, ATP luminescence, mouse fibroblasts (AID 2010); type: functional;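 further: cells exposed to compound for about 90 hours before reading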
# [18] = Shn3 3'UTR reporter inhibitors, dose response, cell-based, Clone20 osteoblasts, firefly luciferase, cherry-picked (AID 624132); type: functional;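 further: firefly luciferase luminescence from reporter carrying the Shn3 3'UTR in osteoblasts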
# [19] = target: Genome polyprotein (dengue virus type 2, UniProt P29990); test: Dengue-2 NS5 methyltransferase inhibitors, primary screen, biochemical, confirmation dose response (AID 588689); type: functional
# Chain of Genome polyprotein (P29990 2492-3391 limits assumed): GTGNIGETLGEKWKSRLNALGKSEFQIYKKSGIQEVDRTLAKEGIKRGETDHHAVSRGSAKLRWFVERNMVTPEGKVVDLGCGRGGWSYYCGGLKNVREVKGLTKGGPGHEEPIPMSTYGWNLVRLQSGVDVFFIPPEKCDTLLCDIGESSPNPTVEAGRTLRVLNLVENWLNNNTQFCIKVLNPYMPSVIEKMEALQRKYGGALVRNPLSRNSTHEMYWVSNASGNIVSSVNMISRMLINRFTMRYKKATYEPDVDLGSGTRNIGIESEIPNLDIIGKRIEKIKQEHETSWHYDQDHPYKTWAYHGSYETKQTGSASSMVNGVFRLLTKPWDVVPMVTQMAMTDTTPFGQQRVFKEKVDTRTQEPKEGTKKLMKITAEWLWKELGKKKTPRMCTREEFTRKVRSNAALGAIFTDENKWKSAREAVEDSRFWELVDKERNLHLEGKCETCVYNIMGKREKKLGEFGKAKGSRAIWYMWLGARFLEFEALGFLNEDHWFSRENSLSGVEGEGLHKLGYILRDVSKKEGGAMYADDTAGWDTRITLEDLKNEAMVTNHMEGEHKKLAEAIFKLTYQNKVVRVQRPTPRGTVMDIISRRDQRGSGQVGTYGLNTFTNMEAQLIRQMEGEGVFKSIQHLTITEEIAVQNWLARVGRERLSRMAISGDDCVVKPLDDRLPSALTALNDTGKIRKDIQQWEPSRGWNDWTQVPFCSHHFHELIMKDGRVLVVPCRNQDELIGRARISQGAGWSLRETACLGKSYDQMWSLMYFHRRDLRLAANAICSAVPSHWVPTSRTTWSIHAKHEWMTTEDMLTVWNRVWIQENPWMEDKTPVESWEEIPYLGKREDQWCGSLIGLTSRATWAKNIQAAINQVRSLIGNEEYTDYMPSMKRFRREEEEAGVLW
# T1 sequence (P11940 whole entry): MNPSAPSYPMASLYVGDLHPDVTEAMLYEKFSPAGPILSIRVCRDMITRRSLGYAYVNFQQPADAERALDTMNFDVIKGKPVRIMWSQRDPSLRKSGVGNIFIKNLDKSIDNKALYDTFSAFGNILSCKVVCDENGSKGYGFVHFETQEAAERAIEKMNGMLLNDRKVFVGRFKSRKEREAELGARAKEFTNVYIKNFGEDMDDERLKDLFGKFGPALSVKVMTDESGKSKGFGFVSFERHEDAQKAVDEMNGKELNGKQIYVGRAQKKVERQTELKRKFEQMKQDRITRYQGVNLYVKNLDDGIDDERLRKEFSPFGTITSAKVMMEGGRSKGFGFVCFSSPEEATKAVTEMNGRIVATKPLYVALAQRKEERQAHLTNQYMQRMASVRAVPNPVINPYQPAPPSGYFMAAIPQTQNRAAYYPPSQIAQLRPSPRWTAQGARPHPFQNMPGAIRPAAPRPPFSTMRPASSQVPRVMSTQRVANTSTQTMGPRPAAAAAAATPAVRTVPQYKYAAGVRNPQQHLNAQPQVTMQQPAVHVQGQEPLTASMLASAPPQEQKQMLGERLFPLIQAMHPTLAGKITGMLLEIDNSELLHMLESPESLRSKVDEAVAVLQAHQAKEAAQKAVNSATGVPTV
smiles,measurement,setting,value
Cc1ccc(-n2[nH]c(C)c(/C=N/c3ccc4[nH]c(O)nc4c3)c2=O)cc1C,IC50,[1],35.3 µM (inactive)
same,AC50,[2],12.6 µM (inconclusive)
same,IC50,[3],22 µM (inactive)
C=CCC1=C/C(=C\c2c(N)n3nc(CC(=O)N4CCCC4)sc3nc2=O)C=C(OC)C1=O,EC50,[4],10.6 µM (active)
O=C(Cn1c(=O)c2sccc2n(Cc2cccc([N+](=O)[O-])c2)c1=O)NCCc1ccccc1,IC50,[5],11.1 µM (active)
same,IC50,[6],26.7 µM (inactive)
Cc1ccc(Sc2ncnc3onc(C)c23)cc1,AC50,[7],14.9 µM (active)
same,AC50,[8],9.91 µM (active)
same,EC50,[9],6.8 µM (active)
O=C1NC[C@@H](c2ccccc2)OC(=O)[C@H](Cc2ccc(F)cc2)CC/C=C/C[C@H]1CC(=O)N(CCO)Cc1ccccc1,EC50,[4],> 53 µM (inactive)
CCc1c(O)nc(SCC(=O)N2CCc3cc(OC)c(OC)cc3[C@@H]2C)nc1O,IC50,[1],> 66 µM (inactive)
same,IC50,[3],> 66 µM (inactive)
O=C(NCC1CCCCC1)c1cc([N+](=O)[O-])ccc1Cl,IC50,[5],13.8 µM (active)
same,IC50,[6],9.77 µM (active)
CS(=O)(=O)c1ccc2nc(NC3(C(F)(F)F)N=C4SCCN4C3=O)sc2c1 (stereo unspecified),IC50,[1],> 66 µM (inactive)
same,IC50,[3],> 66 µM (inactive)
O=C(O)CCN1C(=O)C(=C2CCCCCC2)SC1=S,IC50,[1],> 66 µM (inactive)
same,AC50,[10],40.8 µM (active)
same,IC50,[3],> 66 µM (inactive)
CC(NC(=O)OCc1ccccc1)C(=O)Oc1cc2oc(=O)cc(-c3ccccc3)c2cc1Cl (stereo unspecified),EC50,[11],1.09 µM (active)
same,EC50,[12],> 150 µM (inactive)
COc1ccc(C(O)c2nccc3cc(OC)c(OC)cc23)cc1OC (stereo unspecified),AC50,[7],3.56 µM (active)
same,EC50,[9],10.7 µM (active)
O=C(c1ccc(Cl)c([N+](=O)[O-])c1)N1CCN(c2ccccc2)CC1,IC50,[6],11.9 µM (active)
COc1cc(/C=C2/C(=O)N(c3ccc(C)c(C)c3)N=C2C)cc([N+](=O)[O-])c1O,AC50,[7],11.3 µM (active)
same,EC50,[9],8.54 µM (active)
Cc1[nH]n(C(N)=S)c(=O)c1C(c1ccccc1)C(C#N)C#N (stereo unspecified),AC50,[7],16.2 µM (active)
same,EC50,[9],12.9 µM (active)
CC1=NN(c2ccccc2)C(=O)C1C(=S)SC1CC(=O)NC1=O (stereo unspecified),IC50,[1],> 66 µM (inactive)
same,IC50,[3],> 66 µM (inactive)
CCN1CCN(c2c(Cl)cccc2NC(=O)c2ccc3c(c2)OCCO3)CC1,AC50,[7],> 380 µM (inactive)
same,EC50,[9],> 380 µM (inactive)
CN(C)S(=O)(=O)c1cccc(NC(=S)N/N=C/c2cc(Br)ccc2O)c1,AC50,[13],0.481 µM (active)
same,EC50,[14],7.76 µM (active)
same,EC50,[11],2.83 µM (active)
same,EC50,[15],2.27 µM (active)
same,EC50,[16],> 350 µM (not active)
same,EC50,[17],> 60 µM (not active)
same,EC50,[12],> 150 µM (inactive)
O=C1CSC(=S)N1N=Cc1c(F)cccc1Cl,EC50,[4],> 53 µM (inactive)
O=C(NCCc1ccccc1)c1c(O)c2cccc3c2n(c1=O)CC3,EC50,[11],> 38 µM (not active)
same,EC50,[12],> 150 µM (inactive)
C=C(C)CSc1nc(O)cc(C)c1C#N,EC50,[11],1.86 µM (active)
same,EC50,[12],> 150 µM (inactive)
CC1(Cc2ccc(OC(F)(F)F)cc2)C(=O)Nc2c(Cl)ccc(Cl)c21 (stereo unspecified),AC50,[18],25.7 µM (active)
CCOC(=O)Cc1csc(NC(=O)CSc2nc(O)c3c(C)c(C(=O)O)sc3n2)n1,EC50,[11],5.45 µM (active)
same,EC50,[12],104 µM (active)
O=C(Cn1nnc(-c2cc(C(F)(F)F)cc(C(F)(F)F)c2)n1)NN=C(S)Nc1ccc(Cl)cc1,IC50,[1],> 66 µM (inactive)
same,IC50,[3],> 66 µM (inactive)
CSCCC(NC(=O)c1ccccc1)C(=O)N/N=C(\C)c1ccccc1 (stereo unspecified),EC50,[4],7.06 µM (active)
Cc1[nH]n(-c2ccccc2)c(=O)c1C(c1ccc(O)c([N+](=O)[O-])c1)c1c(C)[nH]n(-c2ccccc2)c1=O,AC50,[7],2.53 µM (active)
same,EC50,[9],1.01 µM (active)
same,IC50,[19],28.7 µM (active)
COc1ccc(C(=O)NN/C(C)=C/C(=O)C(F)(F)C(F)(F)C(F)(F)F)cc1,AC50,[13],32.5 µM (active)
same,EC50,[11],0.384 µM (active)
same,EC50,[12],47.2 µM (active)
